Legend:
[1] = target: T1, KCNQ 2/3 channels (HEK293 cells stably expressing human KCNQ2 and KCNQ3 subunits) (Homo sapiens, UniProt O43525+O43526); assay: KCNQ2/3 channel activation, thallium flux FLIPR assay (BTC-AM dye); type: cell-based; settings: for Emax: HEK293, maximum response relative to response of retigabine at 10 μM (set at 100%), read-out: Max. %; for EC50: HEK293 cells expressing human KCNQ2 and KCNQ3, FLIPR thallium flux
T1 construct: expressed in transfected cells; host or cells: HEK293
Outline: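 HEK293 cells stably expressing human KCNQ2/KCNQ3 were loaded with BTC-AM and exposed to compound for 4 min in pH 7.3 gluconate buffer with ouabain. Thallium flux was triggered with 6 mM TlNO3 and 10 mM K2SO4 (stock additions) and fluorescence (ex 488, em 540 nm) recorded for 3 min. EC50 came from responses over baseline; maximal response is relative to 10 μM retigabine (100%).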

[2] = tested on: CCI-induced mechanical allodynia; assay: Chronic constriction injury (CCI) model of neuropathic pain (Bennett model); type: in vivo, Sprague-Dawley rats; settings: rat CCI, about 30 mg/kg i.p., 30 minutes or more before testing
From the text: (§1) Adult male Sprague-Dawley rats (250-300 g body weight, Charles River Laboratories, Portage, Mich.) were used. Animal handling and experimental protocols were approved by the Institutional Animal Care and Use Committee (IACUC) at Abbott Laboratories. For all surgical procedures, animals were maintained under isoflurane anesthesia (4-5% to induce, 1-3% to maintain), and the incision sites were sterilized using a 10% povidone-iodine solution prior to and after surgeries.
(§2) Tactile (mechanical) allodynia was measured using calibrated von Frey filaments (Stoelting, Wood Dale, Ill.) as described in Chaplan, S. R., F. W. Bach, J. M. Pogrel, J. M. Chung and T. L. Yaksh, 1994, Quantitative assessment of tactile allodynia in the rat paw, J. Neurosci. Methods, 53, 55. Rats were placed into inverted individual plastic containers (20×12.5×20 cm) on top of a suspended wire mesh grid, and acclimated to the test chambers for 20 minutes. The von Frey filaments were presented perpendicularly to the plantar surface of the selected hind paw, and then held in this position for approximately 8 seconds with enough force to cause a slight bend in the filament. Positive responses include an abrupt withdrawal of the hind paw from the stimulus, or flinching behavior immediately following removal of the stimulus.
A model of chronic constriction injury-induced (CCI) neuropathic pain was produced by following the method of Bennett and Xie (1988, Pain, 33, 87-107). The right common sciatic nerve was isolated at mid-thigh level, and loosely ligated by 4 chromic gut (5-0) ties separated by an interval of 1 mm. Sham rats can underwent the same procedure, but without sciatic nerve constriction. All animals can be left to recover for at least 2 weeks and no more than 5 weeks prior to testing of mechanical allodynia. Compounds were injected (i.p.) 30 minutes or more before testing.

[3] = tested on: SNL-induced tactile allodynia; assay: Spinal nerve ligation (SNL) model of neuropathic pain; type: in vivo, Sprague-Dawley rats; settings: rat SNL, about 30 mg/kg i.p., 30 minutes or more before testing
From the text: as §1
as §2, with “stimulus. […]” for “stimulus.”

[4] = tested on: Capsaicin-induced secondary mechanical hyperalgesia / tactile allodynia; assay: Capsaicin-induced secondary mechanical hypersensitivity; type: in vivo, Sprague-Dawley rats; settings: rat, about 30 mg/kg i.p., 30 minutes before testing, von Frey
From the text: as §1
Rats were allowed to acclimate to the study room for 1 hour. They were then briefly restrained, and capsaicin was administered at 10 μg in 10 μL of vehicle (10% ethanol and 2-hydroxypropyl cyclodextrin) by intraplantar injection into the center of the right hind paw. Secondary mechanical hyperalgesia was measured at the heel away from the site of injection at 180 minutes following capsaicin (Joshi et al., 2006, Neuroscience 143, 587-596). Compounds were injected (i.p.) 30 minutes before testing (150 minutes post-capsaicin).
Tactile (mechanical) allodynia was measured using calibrated von Frey filaments (Stoelting, Wood Dale, Ill.) as described in Chaplan, S. R., F. W. Bach, J. M. Pogrel, J. M. Chung and T. L. Yaksh, 1994, Quantitative assessment of tactile allodynia in the rat paw, J. Neurosci. Methods, 53, 55. […]
Tactile allodynia was measured as described above.

| SMILES | Emax [1] | EC50 [1] | change in paw withdrawal latency versus vehicle [2] | change in paw withdrawal latency versus vehicle [3] | change in paw withdrawal latency versus vehicle [4] |
| --- | --- | --- | --- | --- | --- |
| Cc1ccnc2c(-c3ccc(OC(F)(F)F)cc3)c(NC(=O)Cc3ccc(F)cc3)nn12 [Example 9, 2-(4-fluorophenyl)-N-{7-methyl-3-[4-(trifluoromethoxy)phenyl]pyrazolo[1,5-a]pyrimidin-2-yl}acetamide] | 119% | 500 to 1000 nM | statistically significant change | statistically significant change | – |
| Cc1cnc2c(-c3ccc(F)c(C)c3)c(NC(=O)CCC3CCCCC3)nn2c1 [Example 35, 3-cyclohexyl-N-[3-(4-fluoro-3-methylphenyl)-6-methylpyrazolo[1,5-a]pyrimidin-2-yl]propanamide] | 116% | < 100 nM | statistically significant change | – | – |
| CC(C)(C)CC(=O)Nc1nn2cccnc2c1-c1ccc(OC(F)(F)F)cc1 [Example 1, 3,3-dimethyl-N-(3-(4-(trifluoromethoxy)phenyl)pyrazolo[1,5-a]pyrimidin-2-yl)butanamide] | – | – | statistically significant change | – | statistically significant change |
| O=C(CCC1CCCC1)Nc1nn2cccnc2c1-c1ccc(Cl)cc1 [Example 7, N-[3-(4-chlorophenyl)pyrazolo[1,5-a]pyrimidin-2-yl]-3-cyclopentylpropanamide] | 150% | 100 to 500 nM | – | statistically significant change | – |
| C/C=C/c1c(NC(=O)CC(C)(C)C)nn2cccnc12 [Example 167, 3,3-dimethyl-N-{3-[(1E)-prop-1-en-1-yl]pyrazolo[1,5-a]pyrimidin-2-yl}butanamide] | 98% | 1000 to 10000 nM | – | – | – |
| Cc1cc(C)n2nc(NC(=O)CC3CCCC3)c(-c3cccc(Cl)c3)c2n1 [Example 53, N-[3-(3-chlorophenyl)-5,7-dimethylpyrazolo[1,5-a]pyrimidin-2-yl]-2-cyclopentylacetamide] | 143% | < 100 nM | – | – | – |

From patent US8609669B2, “Potassium channel modulators” (AbbVie Inc., priority 2010, dated 2013)
